Laboratory results published in patent publication US20100297676A1, “METHODS FOR DIAGNOSIS, PROGNOSIS AND METHODS OF TREATMENT” (Nodality, Inc., priority 2009, published 2010).

Legend:
[1] = test system: CLL cells; settings: in vitro treatment; Buchner 2009, Gobessi 2009; cited from earlier work
[2] = test system: healthy B cells; settings: B cells from healthy donors; anti-μ 10 μg/ml plus H2O2 […], 10 min
Description: Cryopreserved PBMCs, 23 from CLL patients and 7 from healthy donors, were rapidly thawed in a 37° C. water bath. 1 mL of pre-warmed thawing media (PBS 1% FBS, 2 mM EDTA) was added dropwise to each of the cryovials. Thawed cells were transferred to a tube containing 8 mL thawing media. Tubes were inverted and centrifuged at 200×g for 8 minutes at room temperature. Supernatant was decanted, cell pellets were resuspended in 1 mL RPMI 1640 1% FCS and filtered over 70 um nylon mesh (BD Falcon) to remove cell clumps and debris. 11 mL of additional RPMI 1640 1% FCS was added to the samples to wash. […]
Supernatant was aspirated and each sample was resuspended in 4 mL of PBS. […] The supernatant was decanted and all samples were resuspended at a density of 2.4×10^6 cells/mL, using a volume specific to the number of cells determined from the cell counting procedure. […]
“Daughter” plates designated for treatment with modulators for or apoptosis inducing agents were generated from the “mother” plate with the use of a Liquidator 96-well pipettor (Rainin) Plates designated for treatment with modulators for phospho-readouts received 250 uL (6.0×10^5 cells) of cell suspension per well, and plates designated for treatment with apoptosis inducing agents received 333 uL (8.0×10^5 cells) of cell suspension per well. […]
Antibody cocktails for signaling and apoptosis readouts were prepared in FACS Buffer. […]

| SMILES | apoptotic response of CLL cells [1] | effect of H2O2 on anti-μ-mediated BCR signaling [2] |
| --- | --- | --- |
| COc1cc(Nc2ncc(F)c(Nc3ccc4c(n3)NC(=O)C(C)(C)O4)n2)cc(OC)c1OC [R406] | mediated an apoptotic response | – |
| OO [H2O2, hydrogen peroxide] | – | further potentiated |
